Data as given in patent publication US8613931B2, “Compounds for treating beta-amyloidoses” (Affiris AG, priority 2008, dated 2013).

Assays:
[1] = test system: monoclonal antibody MV-001; test: In vitro inhibition assay (ELISA), MV-001 binding to original epitope; design: species or system C57/Bl6 mice; conditions: OD at 10 μg peptide compared to original peptide
Procedure: (§1) 2. In vitro inhibition assay (ELISA)
(§2) Different amounts of peptides (concentrations ranging from 10 μg to 0.08 μg; serial dilutions), derived from Phage Display were incubated with the monoclonal antibody that was used for the screening procedure. Peptides diminishing subsequent binding of the antibody to the original epitope coated on ELISA plates were considered as inhibiting in this assay.

[2] = test system: full length and/or truncated and modified forms of Aβ; test: In vivo characterisation of mimotopes: detection of Aβ/truncated/modified forms; design: species or system C57/bl6 mice; key: +: All peptides listed in Table 4 mount specific immune reactions against full length and/or truncated and modified forms of Aβ or fragments thereof; conditions: MV-001 derived mimotopes; mimotope vaccination
Procedure: Inhibiting as well as non-inhibiting peptides were coupled to KLH and injected into mice (wildtype C57/Bl6 mice; subcutaneous injection into the flank) together with an appropriate adjuvant (aluminium hydroxide). Animals were vaccinated 3-6 times in biweekly intervals and sera were taken biweekly as well. Titers to injected peptides, as well as to an irrelevant peptide were determined with every serum. Furthermore, titers against the recombinant human Aβ protein, and against original peptides were determined respectively. In general sera were analysed by reaction against peptides coupled to Bovine Serum Albumin (BSA) and recombinant full length proteins which were immobilised on ELISA plates. Titers were determined using anti mouse IgG specific antibodies. For detailed results see FIGS. 6, 7 and 8 respectively.
Female C57/bl6 mice, 5-6 mice per group, were subcutaneously immunized with 30 μg peptide coupled to KLH. Control groups were administered original epitope-KLH conjugates respectively. As adjuvant alum was used (always 1 mg per mouse). […] The in vitro ELISA assay to determine the antibody titer was performed with sera of single mice after each vaccination in a two week interval (see FIGS. 6 and 7 respectively). The wells of the ELISA plate were coated with mimotope-BSA conjugate and an irrelevant peptide-BSA conjugate (negative control). The positive control was performed by reaction of the parental antibody with the respective mimotope-BSA conjugate. The detection was performed with anti-mouse IgG. Additionally, recombinant proteins were immobilised on ELISA plates and sera reacted accordingly. FIGS. 6 to 8 show representative examples for assays used to characterise mimotopes in vivo.

[3] = test system: monoclonal antibody MV-001; test: In vitro binding assay (ELISA), parental antibody MV-001; design: species or system C57/Bl6 mice; conditions: peptide-BSA on ELISA plate; OD halfmax, dilution factor 1:X of parental AB MV-001
Procedure: 1. In vitro binding assay (ELISA)
Peptides derived from Phage Display as well as variants thereof were coupled to BSA and bound to ELISA plates (1 μM; as indicated in the respective figures) and subsequently incubated with the monoclonal antibody that was used for the screening procedure to analyse binding capacity of identified peptides.

[4] = test system: monoclonal antibody MV-004; test: In vitro inhibition assay (ELISA), MV-004 binding to original epitope; design: species or system BalbC mice; conditions: OD at 10 μg peptide compared to original peptide
Procedure: as §1, §2

[5] = test system: Tg2576 AD mouse model; test: Area occupied by amyloid plaques in Tg2576 mice after mimotope vaccination; type: in vivo; conditions: Tg2576, 6 s.c. injections at monthly intervals, peptide-KLH conjugate with ALUM; for average area occupied by amyloid plaques: mAb 3A5 staining, control group 0.35%; for reduction of area occupied by amyloid plaques following mimotope treatment: versus control group
[6] = molecular target: monoclonal antibody MV-004; test: ELISA, peptide-BSA coated, MV-004; conditions: for Binding Capacity: scale: code
[7] = molecular target: monoclonal antibody MV-004; test: inhibition ELISA; competitor: coated original epitope p4372; conditions: for Inhibition Capacity: scale: code
[8] = molecular target: monoclonal antibody MV-003; test: ELISA, peptide-BSA coated, MV-003
[9] = molecular target: monoclonal antibody MV-003; test: inhibition ELISA; competitor: coated original epitope p4373

| Binding Capacity [3] | Molecule | Inhibition Capacity [1] | Detection of Aβ/truncated/modified forms [2] | also measured |
| --- | --- | --- | --- | --- |
| 3 (strong binding :>20000) | YEFRHAQC [p4748] |  | + |  |
| 3 (strong binding :>20000) | QSEFKHWC [p4738] | 1 (Weaker than original epitope (OD of 10 μg peptide below 3 times of original peptide)) | + |  |
| 3 (strong binding :>20000) | SEFKHC [p4801] | 1 (Weaker than original epitope (OD of 10 μg peptide below 3 times of original peptide)) |  |  |
| 3 (strong binding :>20000) | CHEFRH [p4802] | 2 (strong inhibition (as original epitope; OD of 10 μg peptide below 2 times of original peptide)) |  |  |
| 3 (strong binding :>20000) | CSEFKH [p4800] | 2 (strong inhibition (as original epitope; OD of 10 μg peptide below 2 times of original peptide)) |  |  |
| 3 (strong binding :>20000) | TEFRHKAC [p4753] | 2 (strong inhibition (as original epitope; OD of 10 μg peptide below 2 times of original peptide)) | + |  |
| 3 (strong binding :>20000) | ADHDFRHC [p4740] | 1 (Weaker than original epitope (OD of 10 μg peptide below 3 times of original peptide)) | + |  |
| 3 (strong binding :>20000) | DEHPFRHC [p4730] | 1 (Weaker than original epitope (OD of 10 μg peptide below 3 times of original peptide)) | + |  |
| 3 (strong binding :>20000) | DGLLFKHC [p4741] | 1 (Weaker than original epitope (OD of 10 μg peptide below 3 times of original peptide)) |  |  |

Further lines, the molecule ahead of its results:

| Molecule | Binding Capacity [3] | Inhibition Capacity [1] | Detection of Aβ/truncated/modified forms [2] | also measured |
| --- | --- | --- | --- | --- |
| SQFRHYC [p4385] |  | 1 (Weaker than original epitope (OD of 10 μg peptide below 3 times of original peptide)) | + |  |
| EVWHRHQC [p4417] |  |  |  | Inhibition Capacity [4]: 1 (Weaker than original epitope (OD of 10 μg peptide below 5 times of original peptide)) |
| TLHEFRHC [p4715] | 3 (strong binding :>20000) | 2 (strong inhibition (as original epitope; OD of 10 μg peptide below 2 times of original peptide)) | + | average area occupied by amyloid plaques [5]: 0.22%; reduction of area occupied by amyloid plaques following mimotope treatment [5]: 36% |
| THTDFRHC [p4725] | 3 (strong binding :>20000) | 1 (Weaker than original epitope (OD of 10 μg peptide below 3 times of original peptide)) | + |  |
| ELFKHHLC [p4714] | 3 (strong binding :>20000) |  | + |  |
| SPNQFRHC [p4707] | 3 (strong binding :>20000) | 1 (Weaker than original epitope (OD of 10 μg peptide below 3 times of original peptide)) | + |  |
| EVWHRGC [p4788] |  |  |  | Inhibition Capacity [4]: 1 (Weaker than original epitope (OD of 10 μg peptide below 5 times of original peptide)) |
| ILFRHGC [p4390] | 3 (strong binding :>20000) | 1 (Weaker than original epitope (OD of 10 μg peptide below 3 times of original peptide)) | + | average area occupied by amyloid plaques [5]: 0.14%; reduction of area occupied by amyloid plaques following mimotope treatment [5]: 60% |
| ELWHRYPC [p4420] |  |  |  | Inhibition Capacity [4]: 1 (Weaker than original epitope (OD of 10 μg peptide below 5 times of original peptide)) |
| ELWHRAFC [p4665] |  |  |  | Inhibition Capacity [4]: 2 (strong inhibition (as original epitope; OD of 10 μg peptide below 2 times of original peptide)) |
| TSVFRHC [p4383] | 3 (strong binding :>20000) | 1 (Weaker than original epitope (OD of 10 μg peptide below 3 times of original peptide)) | + |  |
| SEFKHGC [p4381] | 3 (strong binding :>20000) | 1 (Weaker than original epitope (OD of 10 μg peptide below 3 times of original peptide)) | + | average area occupied by amyloid plaques [5]: 0.11%; reduction of area occupied by amyloid plaques following mimotope treatment [5]: 67% |
| ERWHEKHC [p4418] |  |  |  | Inhibition Capacity [4]: 2 (strong inhibition (as original epitope; OD of 10 μg peptide below 2 times of original peptide)) |
| EVWHRHC [p4789] |  |  |  | Inhibition Capacity [4]: 1 (Weaker than original epitope (OD of 10 μg peptide below 5 times of original peptide)) |
| LMFRHNC [p4386] | 3 (strong binding :>20000) | 1 (Weaker than original epitope (OD of 10 μg peptide below 3 times of original peptide)) | + |  |
| EVWHRLQC [p4419] |  |  |  | Inhibition Capacity [4]: 2 (strong inhibition (as original epitope; OD of 10 μg peptide below 2 times of original peptide)) |

| Molecule | Binding Capacity [3] | Inhibition Capacity [1] | Detection of Aβ/truncated/modified forms [2] | also measured |
| --- | --- | --- | --- | --- |
| NWFPHPC [p4392] | 1 (weak binding :<4000) | 1 (Weaker than original epitope (OD of 10 μg peptide below 3 times of original peptide)) |  |  |
| ERWHEKC [p4790] |  |  |  | Inhibition Capacity [4]: 2 (strong inhibition (as original epitope; OD of 10 μg peptide below 2 times of original peptide)) |
| ELWHRAC [p4786] |  |  |  | Inhibition Capacity [4]: 1 (Weaker than original epitope (OD of 10 μg peptide below 5 times of original peptide)) |
| ELWHRAFC [p4665] |  |  |  | Binding Capacity [6]: 2; Inhibition Capacity [7]: 2 |
| EVWHRLQC [p4419] |  |  |  | Binding Capacity [6]: 3; Inhibition Capacity [7]: 2 |
| VRWDVYPC [p4396] |  |  |  | Binding Capacity (code (weak binding, OD halfmax 1:<16000)) [8]: 1 |
| EVWHRHC [p4789] |  |  |  | Binding Capacity (code (weak binding, OD halfmax 1:<24000)) [6]: 1; Inhibition Capacity (code (weaker than original epitope)) [7]: 1 |
| ELWHRYPC [p4420] |  |  |  | Binding Capacity [6]: 2; Inhibition Capacity (code (weaker than original epitope)) [7]: 1 |
| ELWHRAC [p4786] |  |  |  | Binding Capacity (code (weak binding, OD halfmax 1:<24000)) [6]: 1; Inhibition Capacity (code (weaker than original epitope)) [7]: 1 |
| IRWDTPC [p4395] |  |  |  | Inhibition Capacity (code (weaker than original epitope)) [9]: 1; Binding Capacity ([8]; scale: code): 2 |
| EVWHRGC [p4788] |  |  |  | Binding Capacity (code (weak binding, OD halfmax 1:<24000)) [6]: 1; Inhibition Capacity (code (weaker than original epitope)) [7]: 1 |
| EVWHRHQC [p4417] |  |  |  | Binding Capacity [6]: 2; Inhibition Capacity (code (weaker than original epitope)) [7]: 1 |
| IRYDMAGC [p4399] |  |  |  | Binding Capacity (code (weak binding, OD halfmax 1:<16000)) [8]: 1 |
| ERWHEKC [p4790] |  |  |  | Binding Capacity (code (weak binding, OD halfmax 1:<24000)) [6]: 1; Inhibition Capacity [7]: 2 |
| ERWHEKHC [p4418] |  |  |  | Binding Capacity [6]: 3; Inhibition Capacity [7]: 2 |
